The assay deals with P. falciparum 3D7 growth, pLDH absorbance. Description: P. falciparum 3D7 growth inhibition, dose response, strain 3D7 (AID 2305).

Several values for one entry are separate records, joined by “and”; a condition that tells them apart may be missing. Equal values may be shown once.

The results in this text go back to PubChem BioAssay AID2305 (GlaxoSmithKline (GSK), 2010).

The IC50 is the midpoint of a concentration-inhibition curve. Higher therefore signals weaker potency in that assay. In the case of `CC1=C(C(=O)OCCOCc2ccccc2)C(c2ccccc2C(F)(F)F)C(C(=O)OCCOCc2ccccc2)=C(C)N1`, the IC50 turned out to be 530 nM.
In the case of `Cn1cc(CCNc2ccnc(NCCc3coc4ccccc34)n2)c2ccccc21`, the IC50 was determined as 1060 nM.
Next, `O=C(NCc1ccc(Cl)c(Cl)c1)[C@H]1CNCCN1C(=O)c1ccccc1`: 950 nM.
Next, `CC(Oc1ccc(Cl)cc1)C(=O)Nc1cc(C(F)(F)F)ccc1N1CCOCC1` (stereo unspecified): 530 nM; `NC(N)=NC(=O)Nc1cc(Br)c(Cl)c(C(F)(F)F)c1`: 760 nM.
Next, `Cc1cccc2[nH]c(-c3ccc(-c4ccc(CN5CCCCC5)cc4)cc3)nc12`: 590 nM.
Molecule `COc1cc(Br)c(S(=O)(=O)n2cc(CN3CCC(N)CC3)c3cc(Cl)ccc32)cc1OC` came in with an IC50 of 990 nM.
To `Cc1cccnc1CNc1nccc2c(C)c(C)[nH]c12` belongs 850 nM.
Next, `CC(C)CCOc1ccc(NC(=O)c2cccs2)cc1`: 510 nM; `COc1ccc2nccc([C@@H](O)CN3CCC(NCCc4c[nH]c5ccccc45)CC3)c2c1`: 210 nM; `COc1c(C2CCN(CCCCNC(=O)c3ccc(NC(=O)c4ccc(C#N)cc4)cc3)CC2)ccc2c1CCCC2`: 290 nM.
In turn, `CC[C@H]1CN2CC[C@H]1C[C@H]2[C@H](O)c1cc(N2CCCC(C(=O)N(CC)CC)C2)nc2ccc(OC)cc12` (stereo partly specified) came in with an IC50 of 70 nM.
To `CCCCCCCCCN1CC[C@@H](CCCc2ccnc3ccc(O)cc23)[C@@H](CC)C1` belongs 290 nM.
To `COc1c(C(=O)NC2CCN(Cc3ccccc3)C2)cnc2ccccc12` (stereo unspecified) belongs 960 nM; to `CS(=O)(=O)N(c1ccc(F)cc1)c1cc(C(=O)N[C@@H](Cc2ccccc2)[C@H](O)CNCc2cccc(C(F)(F)F)c2)cc(N2CCCC2=O)c1`, 1350 nM; to `Cc1cccc2[nH]c(-c3ccc(-c4ccc(CNCCCN5CCCC5=O)cc4)s3)nc12`, 750 nM.
Next, `Cc1ccc(NC(=O)Nc2ccc(Cl)cc2)cc1-c1cccc(C(=O)Nc2ccc(F)cc2)c1`: 740 nM.
`COc1c(I)cc(Cc2cnc(N)nc2N)cc1I` registered an IC50 of 930 nM.
In turn, `COc1ccc(CN(C)C(=O)CCNS(=O)(=O)c2ccc3c(c2)OCCCO3)cc1F` gave an IC50 of 660 nM.
To `Nc1ncc(-c2cccc(F)c2)cc1-c1nc2ccc(F)cc2[nH]1` belongs 180 nM; to `COc1ccc(CNCc2cccc(-c3cccc(-c4nc5ccc(C(F)(F)F)cc5[nH]4)c3)c2)cc1`, 200 nM; to `CN(C)CCNCc1cccc(-c2cccc(-c3nc4ccccc4[nH]3)c2)c1`, 770 nM.
Next, `COC(=O)c1cccc(NC(=O)NC2CCN(c3ccnc(Nc4cc(OC)c(OC)c(OC)c4)n3)C2)c1` (stereo unspecified): 510 nM; `CCc1cn2c3c(cc(C(=O)N[C@@H](Cc4cccc(Cl)c4)[C@H](O)CNC4CCCCC4)cc13)N(C)S(=O)(=O)CC2`: 60 nM.
To `CCOc1cc(C(=O)NC2CCN(Cc3ccccc3)CC2)ccc1-c1nc2cc(Cl)c(Cl)cc2[nH]1` belongs 470 nM; to `O=C(CN1CCN(C(=O)c2ccco2)CC1)Nc1ccc(Br)cc1Cl`, 770 nM; to `Cc1cc(N(C)C)nc(Nc2ccc(NC(=O)c3c(F)cccc3F)cc2)n1`, 1380 nM.
`O=C(Nc1ccccc1Cc1ccccc1)c1ccccc1C(F)(F)F` had an IC50 of 780 nM. This IC50 is about 1.8-fold lower than that of the molecule before.
In turn, `NC(=O)c1cccc(Nc2nccc(Nc3ccc(Oc4cccc(Cl)c4)c(Cl)c3)n2)c1` registered an IC50 of 1280 nM.
Next, `Cc1ccc(NC(=O)c2cccc(CN3CCCN(Cc4cccc(O)c4)CC3)c2)cc1F`: 710 nM; `COc1ccc2nc(C)cc(NN=Cc3cc(C)ccc3O)c2c1`: 140 nM.
To `Cc1cccc(CNc2nc(C)cc(N[C@@H](CC(C)C)C(=O)NCCOc3ccccc3)n2)c1` belongs 1080 nM.
To `COc1cc(C(=O)N2CCN(C(C)C)CC2)ccc1CN(C)CCCN1CCN(c2cccc(Cl)c2Cl)CC1` belongs 780 nM; to `O=C(NCC1CCC(C(=O)NC2CCCc3ccccc32)CC1)c1ccc(O)c(-c2cccc([N+](=O)[O-])c2)c1` (stereo unspecified), 940 nM.
As to `O=C(NCc1cccc2ccccc12)C(c1cc2ccccc2o1)N1CCN(C(c2ccccc2)c2ccccc2)CC1` (stereo unspecified), the IC50 came out at 670 nM.
Next, `COc1cccc(NC(=O)Nc2ccc(Nc3nc(C)cc(N(C)C)n3)cc2)c1`: 170 nM; `CC1CCCC(NCc2c(O)ccc3ccccc23)C1` (stereo unspecified): 930 nM.
Next, `O=C(O)c1ccc(-c2c[nH]c3ncc(-c4ccc(Cl)cc4)cc23)cc1`: 730 nM; `NC(=NC1CC1)c1ccc2nc(CCCCCc3nc4ccc(C(N)=NC5CC5)cc4[nH]3)[nH]c2c1`: 930 nM.
To `COc1cc(Cc2cnc(N)nc2N)c2c(c1OC)OC(C)(C)C=C2` belongs 1190 nM; to `Oc1ccc(C=NNC(=S)Nc2cccc3ccccc23)c(O)c1`, 1040 nM.
Molecule `Cn1cncc1C(=O)Nc1cccc(-c2ccc(-c3nc4ccc(C(F)(F)F)cc4[nH]3)cc2)c1` displayed an IC50 of 510 nM.
`COc1cc2nc(N3CCC(CNC(=O)c4ccc(NC(=O)c5ccc(Cl)cc5)cc4)CC3)nc(N)c2cc1OC`: the IC50 came to 260 nM.
To `Oc1ccc(CN2Cc3ccccc3OC3(CCN(Cc4c[nH]c5cnccc45)CC3)C2)cc1` belongs 1170 nM; to `COc1ccc2nccc([C@@H](O)CN3CCC(NC(=O)C(c4cc5ccccc5o4)N4CCC(Cc5ccccc5)CC4)CC3)c2c1` (stereo partly specified), 250 nM.
To `COc1cc(C)nc2ccc(NC(=O)Nc3ccccc3[N+](=O)[O-])cc12` belongs 840 nM; to `CCOc1ccc2nc(C)cc(NN=Cc3ccccc3F)c2c1`, 740 nM.
In turn, `CC(C)NCc1cccc(-c2ccc(NC(=O)c3ccc(F)cc3)cc2)c1` displayed an IC50 of 850 nM.
Next, `CN1CCN(CCCN(Cc2csc(-c3ccc(CNCc4ccccc4)cc3)n2)C(=O)Nc2cc(Cl)cc(Cl)c2)CC1`: 700 nM; `CN1CCN(c2ccnc3cc4c(cc23)N(Cc2ccccc2)CC4)CC1`: 1140 nM; `CN(C)Cc1ccc(-c2cccc(Nc3nccc(NCC(O)c4ccccc4)n3)c2)cc1` (stereo unspecified): 370 nM.
To `Fc1cc(Cl)ccc1Nc1ccnc2cc(-c3ccc(CN4CCOCC4)o3)ccc12` belongs 640 nM; to `O=C(Nc1ccc(Cl)c(Cl)c1)C1CCC(=O)N1[C@@H](Cc1ccccc1)C(=O)NCCc1ccc(Cl)cc1` (stereo partly specified), 1100 nM; to `CC(C)(C)OC(=O)NCc1ccc(Nc2nnc(-c3ccc(OCC(=O)NCc4ccc(C(C)(C)C)cc4)c([N+](=O)[O-])c3)o2)cc1`, 800 nM.
Next, `Clc1ccccc1OCc1ccccn1`: 990 nM; `Cc1nc(N)nc(N)c1-c1ccc(Br)cc1`: 230 nM.
Molecule `Oc1ccc(CCNc2nc(NCCCOc3ccccc3-c3cccnc3)nc(N3CCNCC3)n2)cc1` gave an IC50 of 1040 nM.
Next, `CCc1ccc(CN2CCC(CNC(=O)c3cc(-c4cccc(F)c4)cs3)C2)cc1` (stereo unspecified): 1360 nM; `Cn1cncc1-c1ccc2c(-c3ccsc3)cnc(N)c2c1`: 850 nM.
Next, `O=C(C=Cc1ccc([N+](=O)[O-])cc1)NC1CCC(CN2CCC(c3c[nH]c4ccccc34)CC2)CC1` (stereo unspecified): 790 nM and 840 nM; `COc1ccc2c(c1)[nH]c1c(/C=C/c3ccc([N+](=O)[O-])cc3)nccc12`: 860 nM; `COc1ccc(NC(=O)Nc2nc3ccccc3s2)cc1N1CCN(C)CC1`: 700 nM.
Next, `Fc1ccc2nc(-c3ccc(-c4ccc(CN5CCN(CCN6CCOCC6)CC5)cc4)s3)[nH]c2c1`: 150 nM.
In turn, `CC(C)CC(NC(=O)c1cccc(OCCN2CCOCC2)c1)C(=O)NC(/C=N/NC(=O)c1ccccc1)CCc1ccccc1` (stereo unspecified) returned an IC50 of 250 nM. Against the preceding molecule, the IC50 is about 1.7-fold higher.
To `O=C(CSc1ccc(Cl)cc1)NC1CCC(CN2CCC(c3c[nH]c4ccccc34)CC2)CC1` (stereo unspecified) belongs 930 nM.
To `CN(CCCCNC(=O)/C=C/c1ccccc1)C1CC2(CCN(C(=O)OC(C)(C)C)CC2)c2ccccc21` (stereo unspecified) belongs 1140 nM; to `N#Cc1ccc(N2CCN(Cc3ccc(-c4ccc(-c5nc6ccc(F)cc6[nH]5)s4)cc3)CC2)nc1`, 850 nM; to `CNC(=O)/C=C/c1cc(NC(=O)Nc2cc(C)nc3c(F)cccc23)ccc1OC`, 910 nM.
Next, `Cc1cccc2[nH]c(-c3ccc(-c4ccc(CN5CCN(CCO)CC5)cc4)s3)nc12`: 710 nM; `O=C(/C=C/c1cc(C(F)(F)F)ccc1F)NC1CCC(CN2CCC(c3c[nH]c4ccccc34)CC2)CC1` (stereo unspecified): 820 nM; `Cc1cc(N[C@@H](Cc2ccccc2)C(=O)NCCc2ccccc2)nc(NCC2CCCCC2)n1`: 920 nM.
As to `CS(=O)(=O)n1c(CN2CCN(c3ncc(C(F)(F)F)cc3Cl)CC2)nc2ccccc21`, the IC50 stood at 1060 nM.
Next, `CC(=O)N(C)c1cccc(C(=O)Nc2ccc(-c3cccc(-c4nc5ccc(C(F)(F)F)cc5[nH]4)c3)cc2)c1`: 720 nM; `O=C(/C=C/c1ccc(Cl)c(Cl)c1)NCCCCCN1CCCN(C(=O)Nc2cccc(Cl)c2)CC1`: 670 nM.
Consider `CC(=O)c1sc(NC(=O)Nc2ccc(C)cc2C)nc1C`, for which the IC50 was 910 nM. This IC50 and that of the molecule before are within 1.5-fold of each other.
To `CCN1CCN(c2cc(C)c3cc(NC(=O)c4ccc(Br)o4)ccc3n2)CC1` belongs 750 nM; to `Cc1cnn(-c2cccc(C(=O)NC3CCC(CCN4CCc5ccc(C#N)cc5CC4)CC3)c2)c1` (stereo unspecified), 930 nM; to `CC(C)N1CCC(Oc2ccc(CN3CCN(C(c4ccccc4)c4ccc(Cl)cc4)CC3)cc2)CC1` (stereo unspecified), 940 nM.
To `Cc1ccc(NC(=O)c2ccc(CN3CCCN(Cc4cccc(Cl)c4)CC3)cc2)cc1C` belongs 1210 nM; to `CCN(CCN(C)C)Cc1ccc(-c2ccc(NS(=O)(=O)c3cccc4cccnc34)cc2)cc1`, 930 nM; to `O=C(Nc1cccc(CN2CCN(Cc3cccc(O)c3)CC2)c1)c1ccc(Cl)c(Cl)c1`, 410 nM.
To `Cc1c(C(=O)N2CCc3cc4nccc(N5CCN6CCC[C@H]6C5)c4cc32)cnn1-c1ccc(C#N)cc1` belongs 990 nM; to `COc1cc2c(c(OC)c1[N+](=O)[O-])C=CC1(O2)N(C)c2ccc([N+](=O)[O-])cc2C1(C)C` (stereo unspecified), 910 nM; to `Cc1[nH]c(C)c(-c2ccc(Oc3ccc(Cl)cc3)cc2)c(=O)c1Br`, 590 nM.
Molecule `c1ccc(N2CCN(c3cc(-c4cccnc4)nc(-c4ccncc4)n3)CC2)nc1` showed an IC50 of 760 nM.
To `O=C(Nc1cccc(CN2CCCN(Cc3ncc[nH]3)CC2)c1)c1ccc2ccccc2c1` belongs 630 nM.
